Like-named read-outs stand apart in the source and are kept apart here. Starred links: 1 amine or outer side, 2 acyl side, 3 side chain; linkers in the order of their positions; H or OH if unused. Positions of bridges follow the written chain, without caps; N, C: chain ends. Non-standard residues stand in square brackets, D forms with d. Residues, ends and D or L forms follow the SMILES beside them. hCys = N[C@@H](CCS)C(=O)O; Orn = NCCC[C@H](N)C(=O)O; Dab = NCC[C@H](N)C(=O)O; X2 = O=C(C[*:1])[*:2]
How the values were obtained:
[1] = Evaluation of molecule stability (alkali treatment, residual rate by LC/MS); type: physicochemical; settings: for Stability (molecule stability, residual rate of the cyclic peptide rank): alkali treatment, residual rate by LC/MS; for Performance evaluation: Stability (residual rate of cyclic peptide after alkali treatment): 500 μM peptide aqueous solution plus equivalent of 1 M sodium hydroxide, 15° C., 3 hours, LC/MS peak area
Outline: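 500 μM aqueous cyclic peptide mixed with an equal volume of 1 M NaOH and held 3 h at 15 °C. Residual rate is total LC/MS peak area after treatment relative to untreated (100%), using a C18 column, pH 3 ammonium formate/acetonitrile gradient, 45 °C, ESI±.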

human integrin αvβ5 = human integrin αvβ5 (Homo sapiens, UniProt P06756+P18084); assay: Evaluation of integrin binding property (surface plasmon resonance, Biacore 3000, immobilized cyclic peptide)
Outline: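 SPR with cyclic peptide amine-coupled via EDC/NHS to a CM5 chip, blank channel as reference. Integrin αvβ5 at 30, 100, 300 and 1,000 nM injected 10 min at 25 °C in HEPES buffer pH 7.4 with 5 mM MgCl2, 30 min buffer flow, EDTA regeneration; Kd from reference-subtracted signals, graded by category.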

[2] = surface plasmon resonance, immobilized cyclic peptide, human integrin αvβ5, read-out: Binding activity (integrin binding property, dissociation constant rank)
[3] = SPR, 25° C., HEPES buffer with 5 mM magnesium chloride, integrin 30-1,000 nM, read-out: Performance evaluation: Binding activity (dissociation constant between the cyclic peptide and human integrin αvβ5)

Sequence of human integrin αvβ5 (P06756 31-1048): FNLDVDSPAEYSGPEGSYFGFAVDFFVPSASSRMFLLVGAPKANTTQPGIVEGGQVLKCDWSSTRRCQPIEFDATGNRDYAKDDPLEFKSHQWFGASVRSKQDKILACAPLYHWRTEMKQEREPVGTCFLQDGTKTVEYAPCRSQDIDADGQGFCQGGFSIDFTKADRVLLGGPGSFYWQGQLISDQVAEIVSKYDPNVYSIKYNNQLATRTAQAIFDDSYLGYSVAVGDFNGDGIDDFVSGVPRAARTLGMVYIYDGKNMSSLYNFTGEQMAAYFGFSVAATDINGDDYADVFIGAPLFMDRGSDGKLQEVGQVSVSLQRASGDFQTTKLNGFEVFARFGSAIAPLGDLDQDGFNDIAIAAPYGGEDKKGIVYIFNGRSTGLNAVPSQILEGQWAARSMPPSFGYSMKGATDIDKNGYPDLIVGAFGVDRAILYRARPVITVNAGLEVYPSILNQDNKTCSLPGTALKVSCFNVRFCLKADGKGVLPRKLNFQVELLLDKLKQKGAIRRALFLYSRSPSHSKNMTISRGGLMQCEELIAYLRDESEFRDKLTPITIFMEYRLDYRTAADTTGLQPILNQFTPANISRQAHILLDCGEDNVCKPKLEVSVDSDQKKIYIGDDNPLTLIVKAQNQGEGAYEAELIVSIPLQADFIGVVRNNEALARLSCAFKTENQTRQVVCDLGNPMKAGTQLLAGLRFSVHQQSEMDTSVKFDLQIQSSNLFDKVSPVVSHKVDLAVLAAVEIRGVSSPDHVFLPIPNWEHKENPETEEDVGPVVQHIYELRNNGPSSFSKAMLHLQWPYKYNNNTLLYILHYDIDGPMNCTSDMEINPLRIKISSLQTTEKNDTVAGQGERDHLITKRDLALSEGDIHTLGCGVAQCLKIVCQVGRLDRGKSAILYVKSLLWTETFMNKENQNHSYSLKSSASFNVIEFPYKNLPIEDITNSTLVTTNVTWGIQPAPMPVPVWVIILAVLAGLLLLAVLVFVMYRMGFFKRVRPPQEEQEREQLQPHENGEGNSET
Sequence of human integrin αvβ5 (P18084 24-799): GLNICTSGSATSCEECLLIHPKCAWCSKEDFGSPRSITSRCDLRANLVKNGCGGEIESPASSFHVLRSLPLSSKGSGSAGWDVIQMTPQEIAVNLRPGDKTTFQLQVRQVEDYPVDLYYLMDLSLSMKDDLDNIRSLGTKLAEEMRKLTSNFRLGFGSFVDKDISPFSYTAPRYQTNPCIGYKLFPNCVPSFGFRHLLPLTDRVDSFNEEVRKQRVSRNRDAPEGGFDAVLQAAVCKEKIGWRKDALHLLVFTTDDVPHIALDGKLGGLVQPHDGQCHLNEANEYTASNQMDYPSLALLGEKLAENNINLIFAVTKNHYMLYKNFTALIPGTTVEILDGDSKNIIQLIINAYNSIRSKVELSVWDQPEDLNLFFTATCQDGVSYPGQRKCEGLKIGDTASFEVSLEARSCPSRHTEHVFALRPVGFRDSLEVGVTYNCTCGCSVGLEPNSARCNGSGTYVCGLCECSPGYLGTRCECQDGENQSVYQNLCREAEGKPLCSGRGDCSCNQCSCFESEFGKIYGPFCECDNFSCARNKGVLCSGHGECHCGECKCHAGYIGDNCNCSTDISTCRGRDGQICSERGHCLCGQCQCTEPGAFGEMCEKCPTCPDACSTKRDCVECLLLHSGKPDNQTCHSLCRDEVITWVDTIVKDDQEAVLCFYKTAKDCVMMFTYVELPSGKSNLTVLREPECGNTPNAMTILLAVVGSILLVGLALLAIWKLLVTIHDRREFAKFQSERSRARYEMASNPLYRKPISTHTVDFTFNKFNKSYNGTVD

SMILES | Stability (molecule stability, residual rate of the cyclic peptide rank) [1] | Kd (human integrin αvβ5; [2]) [nM] | Performance evaluation: Stability (residual rate of cyclic peptide after alkali treatment) [1] | Kd (human integrin αvβ5; [3]) [nM]
CC[C@H](C)[C@@H]1NC(=O)[C@@H](NC(=O)CNC(=O)[C@H](CCCCN)NC(=O)[C@H](CCCCN)NC(=O)[C@@H](N)CCCCN)CCSCC(=O)NCCC[C@@H](C(=O)N[C@@H](C)C(=O)O)NC(=O)[C@H](CCCNC(=N)N)NC(=O)[C@H](Cc2ccccc2)NC(=O)[C@H]([C@@H](C)O)NC(=O)[C@H](CC(=O)O)NC(=O)CNC(=O)[C@H](CCCNC(=N)N)NC(=O)[C@@H]2CCCN2C1=O [Cyclic peptide 115, KKKG-(Hcy)-IPRGDTFR(Orn(acetyl))A] (H-KKKG[hCys]IPRGDTFR[Orn]A-OH; linker 5-14 via X2) | A (The residual rate of the cyclic peptide is 70% or more.) | < 50 | – | –
CC(C)[C@@H]1NC(=O)[C@@H](NC(=O)[C@H](C)NC(=O)[C@H](CCCCN)NC(=O)[C@H](CCCCN)NC(=O)[C@@H](N)CCCCN)CCSCC(=O)NCC[C@@H](C(=O)N[C@@H](C)C(=O)O)NC(=O)[C@H](CCCNC(=N)N)NC(=O)[C@H](Cc2ccccc2)NC(=O)[C@H]([C@@H](C)O)NC(=O)[C@H](CC(=O)O)NC(=O)CNC(=O)[C@H](CCCNC(=N)N)NC(=O)[C@@H]2CCCN2C1=O [Cyclic peptide 74, KKKA-(Hcy)-VPRGDTFR(Dab(acetyl))A] (H-KKKA[hCys]VPRGDTFR[Dab]A-OH; linker 5-14 via X2) | – | – | A (The residual rate of the cyclic peptide is 70% or more.) | < 50
CC(C)[C@@H]1NC(=O)[C@@H](NC(=O)[C@H](CCCCN)NC(=O)[C@H](CCCCN)NC(=O)[C@@H](N)CCCCN)CCSCC(=O)NCC[C@@H](C(=O)O)NC(=O)[C@H]([C@@H](C)O)NC(=O)[C@H](Cc2ccccc2)NC(=O)[C@H]([C@@H](C)O)NC(=O)[C@H](CC(=O)O)NC(=O)CNC(=O)[C@H](CCCNC(=N)N)NC(=O)[C@@H]2CCCN2C1=O [Cyclic peptide 154, KKK-(Hcy)-VPRGDTFT(Dab(acetyl))] (H-KKK[hCys]VPRGDTFT[Dab]-OH; linker 4-13 via X2) | A (The residual rate of the cyclic peptide is 70% or more.) | 50 to 100 | – | –
CC[C@H](C)[C@@H]1NC(=O)[C@H](C)NC(=O)[C@@H](NC(=O)[C@H](CCCCN)NC(=O)[C@H](CCCCN)NC(=O)[C@@H](N)CCCCN)CCSCC(=O)NCC[C@@H](C(=O)N[C@@H](C)C(=O)O)NC(=O)[C@H](CCCNC(=N)N)NC(=O)[C@H](Cc2ccccc2)NC(=O)[C@H](CC(N)=O)NC(=O)[C@H](CC(=O)O)NC(=O)CNC(=O)[C@H](CCCNC(=N)N)NC(=O)[C@@H]2CCCN2C1=O [Cyclic peptide 15, KKK-(Hcy)-AIPRGDNFR(Dab(acetyl))A] (H-KKK[hCys]AIPRGDNFR[Dab]A-OH; linker 4-14 via X2) | – | – | A (The residual rate of the cyclic peptide is 70% or more.) | 50 to 100
CC(C)[C@@H]1NC(=O)[C@@H](NC(=O)[C@H](C)NC(=O)[C@H](CCCCN)NC(=O)[C@H](CCCCN)NC(=O)[C@H](CCCCN)NC(=O)[C@H](CCCCN)NC(=O)[C@@H](N)CCCCN)CCSCC(=O)NCC[C@@H](C(=O)N[C@@H](C)C(=O)O)NC(=O)[C@H](C)NC(=O)[C@H](Cc2ccccc2)NC(=O)[C@H]([C@@H](C)O)NC(=O)[C@H](CC(=O)O)NC(=O)CNC(=O)[C@H](CCCNC(=N)N)NC(=O)[C@@H]2CCCN2C1=O [Cyclic peptide 111, KKKKKA-(Hcy)-VPRGDTFA(Dab(acetyl))A] (H-KKKKKA[hCys]VPRGDTFA[Dab]A-OH; linker 7-16 via X2) | A (The residual rate of the cyclic peptide is 70% or more.) | < 50 | – | –
